Data set [1] deals with T1, human histamine H4 receptor (Homo sapiens, UniProt Q9H3N8).
T1 construct: made in house; host or cells: Sf9 cells (membrane preparations)
The data set can be described thus: [3H]histamine displacement assay, membranes of Sf9 cells expressing hH4R with Gαi2 and Gβ1γ2. The note with it: for Ki: Sf9 membranes, mean within 95% CI; for inhibition at 1 µM: per cent of inhibition at 1 μM, read-out: hH4R inh. at 1 μM. It is filed as binding. As to the method:
The affinity of compounds 2–20 for hH4R was evaluated in a binding assay as previously described. [^3H]Histamine was used as a radioligand and hH4R was expressed in Sf9 cells with G protein Gαi2 and Gβ1γ2 subunits. The pharmacological results represented as Ki values are listed in Table 1 (for alicyclic derivatives) and Table 2 (for aliphatic derivatives). […] Results depended on the substituent in the four positions of a triazine (a main structure).
Affinities of all triazine derivatives were determined in a [^3H] histamine (f.c. 10 nM) displacement assay using membrane preparations from Sf9 cells expressing human H4R and co-expressed with Gαi2 and Gβ1γ2 subunits as described previously. Nonspecific binding was determined in the presence of unlabelled JNJ7777120 ([…]).

Data set [2] concerns the target T2, hH4R (Homo sapiens, UniProt Q9H3N8). Put plainly: cAMP accumulation assay (LANCE Ultra cAMP, CHO-K1 cells stably expressing hH4R). It is filed as cell-based. The note with it: for IC50: forskolin 10 µM, histamine 140 nM, CHO-K1 hH4R cells, read-out: cAMP hH4R IC50 ± SEM; for Kb: calculated from IC50 by Leff–Dougall variant of Cheng–Prusoff equation, read-out: pKb cAMP ± SEM (converted). On the set-up: expressed in transfected cells. The protocol: Intrinsic activity via the Gα subunit was measured using a LANCE Ultra cAMP detection kit and CHO-K1 cells stably expressing hH4R. Adenyl cyclase was stimulated by forskolin (10 µM).
Intrinsic activity in G protein-dependent pathway was measured with homogenous TR-FRET immunoassay, using LANCE Ultra cAMP kit and CHO-K1 H4R cell line or γ-irradiated recombinant CHO-K1 H4R cells (all from PerkinElmer). […] If the CHO-K1 H4R cell line was used it had been cultivated in DMEM/F12 10% FBS 400 µg/mL geneticin and passaged three times a week. […] The antagonist activity was measured in a white, opaque, 384-well microplate (PerkinElmer) with a total volume of 20 µL. […] After incubation, 5 µL of europium chelate-labelled cAMP tracer and 5 µl of ULight-labelled anti-cAMP mAb working solutions were added, mixed and incubated for 1 h. TR-FRET signal was read using a microplate reader (PerkinElmer, Waltham, MA, USA).

Data set [3] has as its target T2, hH4R. The description is as above. It is filed as cell-based. Also noted: expressed in transfected cells. Conditions: antagonist mode.
Data set [4] concerns the target T2, hH4R. Put plainly: β-arrestin recruitment assay (LiveBLAzer, Tango-H4-bla U2OS cells). It is filed as cell-based. Also noted: expressed in transfected cells; host or cells: Tango-H4-bla U2OS cells. The note with it: for IC50 / β-arrestin hH4R % of max. Antagonist Activity at 10 µM: antagonist mode; for IC50: histamine 500 nM (EC80), Tango-H4-bla U2OS cells, read-out: β-arrestin hH4R IC50 ± SEM; for Kb: calculated from IC50 by Leff–Dougall variant of Cheng–Prusoff equation, read-out: pKb β-arrestin ± SEM (converted). The protocol:
Compounds were tested using LiveBLAzer^TM assay and Tango-H4-bla U2OS cells, allowing the estimation of the percentage of β-arrestin recruitment in response to tested treatments.
All used media and reagents except DMSO and tested compounds were purchased from ThermoFisher Scientific, Waltham, MA, USA. DMSO was from CarlRoth (Karlsruhe, Germany) and histamine was from Sigma Aldrich (Darmstadt, Germany). […] The day before the experiment cells were collected from the culture flask with trypsin and seeded in 384 well black-wall, clear-bottom plate (PerkinElmer, Waltham, MA, USA) in concentration 10,000 cells/well in FreeStyle medium. After 24 h of incubation, the cells were checked under the microscope and the dilutions of tested compounds were prepared and added to the wells. In agonist mode compounds were added to the wells and plates were placed in the incubator (HERAcell240, Heraeus, Hanau, Germany) for 16 h. In antagonist mode, first, the compounds were added to the wells, plates were incubated for 30 min, then histamine solution (corresponding to EC80—500 nM) was added and plates were put in the incubator for 16 h. After this time β-lactamase substrate mixture was prepared and added to wells (8 µL/well). Cells were incubated for 2 h at room temperature in the dark then the signal was read using an EnSpire microplate reader (PerkinElmer, Waltham, MA, USA). Drawing of dose-dependent curves and IC50 calculation for compounds were made using GraphPad Prism 6 (GraphPad Software, San Diego, CA, USA).

T1 sequence (Q9H3N8 whole entry): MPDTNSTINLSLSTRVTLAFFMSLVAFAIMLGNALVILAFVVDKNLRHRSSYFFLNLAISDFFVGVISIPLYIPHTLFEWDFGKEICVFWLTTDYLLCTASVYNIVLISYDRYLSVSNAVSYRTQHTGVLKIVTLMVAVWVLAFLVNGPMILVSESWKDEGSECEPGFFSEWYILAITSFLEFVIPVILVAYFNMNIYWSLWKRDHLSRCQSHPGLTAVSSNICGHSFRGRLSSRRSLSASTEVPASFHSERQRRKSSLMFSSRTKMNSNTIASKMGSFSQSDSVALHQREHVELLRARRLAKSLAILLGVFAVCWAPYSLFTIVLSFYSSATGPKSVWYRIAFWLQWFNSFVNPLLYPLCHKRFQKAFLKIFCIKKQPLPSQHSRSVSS
T2 sequence (Q9H3N8 whole entry): as above

`C=CCCc1nc(N)nc(N2CCN(C)CC2)n1` [Compound 16, 4-(But-3-enyl)-6-(4-methylpiperazin-1-yl)-1,3,5-triazin-2-amine] yielded a melting point of 132 to 133 °C. The same molecule registered a Ki in data set [1] of 319 nM. Besides, in data set [2] (antagonist mode), the IC50 came out at 635 ± 123 nM. The Kb in data set [2] is 219 nM. The “cAMP hH4R % of max. Antagonist Activity at 10 µM” value (shortened to “cAMP hH4R %”) in data set [3] is given as 104%. Moreover, in data set [4], the IC50 was found to be 146 ± 38 nM, the “β-arrestin hH4R % of max. Antagonist Activity at 10 µM” value (“β-arrestin hH4R %” for short) was found to be 94% and the Kb was 23.4 nM.

Molecule `COC(C)Cc1nc(N)nc(N2CCN(C)CC2)n1` (centres unmarked) [Compound 13, 4-(2-Methoxypropyl)-6-(4-methylpiperazin-1-yl)-1,3,5-triazin-2-amine] yielded a melting point of 148 to 151 °C. Also, the affinity in data set [1], expressed as Ki, was 4260 nM.

In turn, `CCCCc1nc(N)nc(N2CCN(C)CC2)n1` [Compound 10, 4-Butyl-6-(4-methylpiperazin-1-yl)-1,3,5-triazin-2-amine] came in with a melting point of 117 to 118 °C. In addition, the Ki in data set [1] is 192 nM. In addition, the concentration for half-maximal inhibition (IC50) in data set [2] (antagonist mode) is 445 ± 10 nM. In addition, the Kb in data set [2] is 158 nM. The “cAMP hH4R %” value in data set [3] came out at 105%. In data set [4], the IC50 was 82 ± 5 nM, the “β-arrestin hH4R %” value was found to be 96% and the Kb is 13.5 nM.

In the case of `CCCC(C)c1nc(N)nc(N2CCN(C)CC2)n1` (centres unmarked) [Compound 11, 4-(4-Methylpiperazin-1-yl)-6-(pentan-2-yl)-1,3,5-triazin-2-amine], the melting point is 138 to 140 °C. The same molecule gave a Ki in data set [1] of 353 nM. The IC50 in data set [2] (antagonist mode) worked out at 640 ± 49 nM. Besides, the Kb in data set [2] was 224 nM. In data set [3], the “cAMP hH4R %” value is on record as 100%. Besides, in data set [4], the IC50 stood at 97 ± 16 nM, the “β-arrestin hH4R %” value is listed as 97% and the Kb is 15.8 nM.

`CC/C=C/Cc1nc(N)nc(N2CCN(C)CC2)n1` [Compound 20, (E)-4-(4-Methylpiperazin-1-yl)-6-(pent-2-enyl)-1,3,5-triazin-2-amine] yielded a melting point of 117 to 119 °C. The inhibition at 1 µM in data set [1] was 6%. Moreover, in data set [4], the IC50 was determined as 376 ± 9 nM and the “β-arrestin hH4R %” value stood at 101%.

For `C=CC(C)Cc1nc(N)nc(N2CCN(C)CC2)n1` (centres unmarked) [Compound 18, 4-(2-Methylbut-3-enyl)-6-(4-methylpiperazin-1-yl)-1,3,5-triazin-2-amine], the melting point lay in the range of 113 to 115 °C. The same molecule gave a Ki in data set [1] of 262 nM. For the same molecule, the IC50 in data set [2] (antagonist mode) was determined as 188 ± 45 nM. Moreover, the Kb in data set [2] is 64.6 nM. Besides, in data set [3], the “cAMP hH4R %” value was determined as 104%. In addition, in data set [4], the IC50 stood at 66.6 ± 3 nM, the “β-arrestin hH4R %” value came out at 101% and the Kb is 11 nM.

Consider `CN1CCN(c2nc(N)nc(CC34CC5CC(CC(C5)C3)C4)n2)CC1` [Compound 9, 4-(1-Adamantylmethyl)-6-(4-methylpiperazin-1-yl)-1,3,5-triazin-2-amine], for which the melting point lay within 200 to 201 °C. For the same molecule, the inhibition at 1 µM in data set [1] turned out to be 43%.

In turn, `C=CCC(C)c1nc(N)nc(N2CCN(C)CC2)n1` (centres unmarked) [Compound 17, 4-(4-Methylpiperazin-1-yl)-6-(pent-4-en-2yl)-1,3,5-triazin-2-amine] showed a melting point of 134 to 136 °C. In addition, affinity in data set [1] was put at a Ki of 263 nM. For the same molecule, in data set [2] (antagonist mode), the IC50 was 721 ± 70 nM. Further, the Kb in data set [2] is 257 nM. Besides, the “cAMP hH4R %” value in data set [3] is on record as 94%. Moreover, in data set [4], the IC50 came to 744 ± 139 nM, the “β-arrestin hH4R %” value came to 92% and the Kb is 117 nM.

Molecule `CCCCCc1nc(N)nc(N2CCN(C)CC2)n1` [Compound 19, 4-(4-Methylpiperazin-1-yl)-6-pentyl-1,3,5-triazin-2-amine] returned a melting point of 173 to 178 °C. Moreover, in data set [1], the Ki worked out at 393 nM. Further, in data set [2] (antagonist mode), the IC50 worked out at 419 ± 77 nM. The Kb in data set [2] is 145 nM. In addition, in data set [3], the “cAMP hH4R %” value came out at 97%. Moreover, in data set [4], the IC50 was 34.9 ± 7 nM, the “β-arrestin hH4R %” value is 99% and the Kb was 5.62 nM.

In turn, `CN1CCN(c2nc(N)nc(CC3C=CCC3)n2)CC1` (centres unmarked) [Compound 7, 4-(Cyclopent-2-enylmethyl)-6-(4-methylpiperazin-1-yl)-1,3,5-triazin-2-amine] came in with a melting point of 166 to 169 °C. In data set [1], this molecule came in with a Ki of 96 nM. Also, the IC50 in data set [2] (antagonist mode) came to 33 ± 2 nM. In data set [2], the Kb was 11.5 nM. In addition, the “cAMP hH4R %” value in data set [3] is given as 104%. Further, in data set [4], the IC50 amounted to 14 ± 1 nM, the “β-arrestin hH4R %” value is reported as 103% and the Kb was 2.34 nM.

`CN1CCN(c2nc(N)nc(C3CC3)n2)CC1` [Compound 2, 4-Cyclopropyl-6-(4-methylpiperazin-1-yl)-1,3,5-triazin-2-amine] yielded a melting point of 156 to 159 °C. The molecule further displayed a Ki in data set [1] of 574 nM. Besides, the IC50 in data set [2] (antagonist mode) was 847 ± 53 nM. Besides, the Kb in data set [2] was 302 nM. Moreover, in data set [3], the “cAMP hH4R %” value was 99%. For the same molecule, in data set [4], the IC50 is 287 ± 30 nM, the “β-arrestin hH4R %” value worked out at 96% and the Kb is 47.9 nM.

For `S=C(NC1CCCCC1)N1CCC(c2cnc[nH]2)CC1` [Thioperamide, reference compound], the “cAMP hH4R %” value in data set [2] (at 10 µM, antagonist mode) worked out at 111%. For the same molecule, the “β-arrestin hH4R %” value in data set [4] worked out at 102%.

For the molecule `CC/C=C/c1nc(N)nc(N2CCN(C)CC2)n1` [Compound 15, (E) 4-(But-1-enyl)-6-(4-methylpiperazin-1-yl)-1,3,5-triazin-2-amine], the melting point fell in the range of 125 to 126 °C. Moreover, the affinity in data set [1], expressed as Ki, was 1490 nM.

The molecule `CN1CCN(c2nc(N)nc(C3CCCCC3)n2)CC1` [Compound 5, 4-Cyclohexyl-6-(4-methylpiperazin-1-yl)-1,3,5-triazin-2-amine] yielded a melting point of 133 to 138 °C. The affinity in data set [1], expressed as Ki, was 432 nM. Further, the IC50 in data set [2] (antagonist mode) worked out at 219 ± 24 nM. Also, the Kb in data set [2] is 75.9 nM. The “cAMP hH4R %” value in data set [3] is 98%. For the same molecule, in data set [4], the IC50 is 101 ± 10 nM, the “β-arrestin hH4R %” value was found to be 92% and the Kb was 16.6 nM.

Regarding `CN1CCN(c2nc(N)nc(C3CCCC3)n2)CC1` [Compound 4, 4-Cyclopentyl-6-(4-methylpiperazin-1-yl)-1,3,5-triazin-2-amine], the melting point was 163 to 169 °C. For the same molecule, in data set [1], the Ki was determined as 1240 nM. Also, in data set [2] (antagonist mode), the IC50 is 102 ± 2 nM. For the same molecule, in data set [2], the Kb was 36.3 nM. In addition, the “cAMP hH4R %” value in data set [3] turned out to be 95%. Also, in data set [4], the IC50 came out at 68.8 ± 2 nM, the “β-arrestin hH4R %” value is listed as 95% and the Kb was 11.5 nM.

In the case of `CN1CCN(c2nc(N)nc(CC3CCCCC3)n2)CC1` [TR-AF-49], the IC50 in data set [2] (antagonist mode) turned out to be 271 ± 11 nM; in data set [4], 68 ± 7 nM. Also, the Kb in data set [2] was 95.5 nM; in data set [4], 11.2 nM. For the same molecule, in data set [3], the “cAMP hH4R %” value is 98%. The “β-arrestin hH4R %” value in data set [4] came to 99%.

(Values after paper PMC10224356, “Trisubstituted 1,3,5-Triazines as Histamine H4 Receptor Antagonists with Promising Activity In Vivo” (Molecules, 2023).)
